According to patent US20210220331A1, “INHIBITORS OF IRES-MEDIATED PROTEIN SYNTHESIS” (The Regents of the University of California, priority 2016, published 2021):

Experiments:
[1] = tested on: LN229, LN18, LN428 and SF763 GBM lines; assay: Cell-cycle phase distribution and Annexin V apoptosis in four GBM lines; assay type: cell-based
Description: Results are expressed as relative fold change in firefly (FF) luciferase activity and the mean and +S.D. are shown for three independent experiments. […] Data represent mean±S.D. of three independent experiments. […] Control cell were treated with DMSO vehicle. Data are means±S.D., n=3. […] Percent apoptotic cells as determined via Annexin V staining are also shown below each graph.

[2] = tested on: cyclin D1, c-MYC and actin mRNAs; assay: Polysome analysis in LN229 cells; assay type: cell-based
[3] = tested on: cyclin D1 or c-MYC mRNA association with eIF-4E; assay: eIF-4E immunoprecipitation and qRT-PCR of bound RNA; assay type: cell-based; conditions: LN229 cells, 50 nM
Description: For immunopurification of eIF4E and bound RNA (21), cells were lysed in buffer containing 50 mM Tris-HCl (pH 7.4), 300 mM NaCl, 0.5% NP-40, 10 mM NaF, 1 mM sodium orthovanidate, 1 mM PMSF, 1.5% aprotinin and SUPERase-IN (ThermoFisher Scientific), 0.025 units/ml, using a Dounce homogenizer at 4° C. Extracts were cleared by centrifugation and immunoprecipitated with eIF4E or control IgG. Beads were washed and obtained RNA was subjected to quantitative RTPCR. For quantitative RT-PCR, extraction of RNA was performed using Trizol (ThermoFisher). Total RNA was then quantified and integrity assessed using an Agilent 2100 Bioanalyzer (Agilent Technology). Total RNA was reverse transcribed with random primers using the RETROscript Kit from ThermoFisher. SYBR Green quantitative PCR was performed in triplicate in 96-well optical plates on an ABI Prism 7000 Sequence Detection System (Life Technologies) according to the manufacturer's instructions. Primer sequences for CCND1, c-MYC and actin are available upon request. […]
(§1) (B) Schematic diagrams of the dicistronic constructs used in this study. […] Input and bound fractions were analyzed by immunoblotting using hnRNP A1 antibodies. […] Bound CCND1 or c-MYC RNAs were detected via RT-PCR. […]

[4] = tested on: IRES from encephalomyocarditis virus; assay: Dicistronic IRES mRNA reporter assay, ECMV IRES; assay type: cell-based; conditions: LN229 cells
Description: Western blot and quantitative RT-PCR analyses were performed as previously described (19). For Western blotting, cells or tissues were lysed in RIPA (lysis) buffer containing protease inhibitor cocktail and phosSTOP phosphatase inhibitor cocktail (Roche) and extracts resolved by SDSPAGE. Proteins were transferred to PVDF membranes and incubated with the indicated antibodies. For IRES reporter assays, the indicated mRNA reporters were cotransfected into cells with pSVβ-galactosidase to normalize for transfection efficiency as described previously (16). Cells were harvested 18 h following transfection and Renilla, firefly and β-galactosidase activities determined using the Dual-Glo Luciferase and β-galactosidase assay systems (Promega).
as §1
Several dicistronic IRES mRNA reporter constructs were utilized, shown in FIG. 1B, in which the indicated IRES sequences were inserted within the intercistronic region. LN229 cells transiently transfected with these constructs were assayed for Renilla and firefly luciferase activities, which are readouts of cap-dependent and IRES-mediated translation initiation, respectively (16).

actin mRNA = assay: Polysome analysis of xenografted LN229 tumors, actin mRNA; conditions: monotherapy
Description: Cells were lysed in buffer containing 100 μg/ml cycloheximide at 4° C. Following removal of mitochondria and nuclei, supernatants were layered onto 15-50% sucrose gradients and centrifuged at 38,000 rpm for 2 h at 4° C. in an SW40 rotor (Beckman Instruments). Gradients were fractionated into 11 1-ml fractions using a density gradient fractionator (Brandel Instruments). The profiles of the gradients were monitored at 260 nm, and RNAs from individual fractions were pooled into a nonribosomal/monosomal pool and a polysomal pool. These RNAs (100 ng) were used in real time quantitative RT-PCR analysis for the indicated transcripts.
Tumor extracts were subjected to sucrose density gradient centrifugation, fractionated and pooled into nonribosomal, monosomal fraction (N, white bars) and a polysomal fraction (P, black bars). Purified RNAs were used in real-time qRT-PCR analysis to determine the distributions of cyclin D1, c-MYC and actin mRNAs across the gradients. […] Means and +S.D. values are shown for quadruplicate RT-PCR measurements. *, P<0.05.
Polysomes were separated via sucrose density gradient sedimentation and fractionated into heavy polysomal and nonribosomal/monosomal fractions.

[5] = tested on: normal mature human neurons; assay: In vitro cytotoxicity in human neurons (trypan blue exclusion); assay type: cell-based; set-up: dose or concentration left out as unconfirmed
Description: Within the series B and C analogs, IRES-J008, with a 4-methoxyphenyl substituent in place of the 2,4-dimethoxybenzyl unit, and to a lesser degree, IRES-J009, with an N1-methyluracil unit in place of the dichloromaleimide unit, inhibited cyclin D1 and c-MYC PP242-induced IRES activity. […] The in vitro cytotoxicities of these three analogs relative to C11 in human neurons were also determined. […] The reduced toxicity of the IRES-J007 versus C11 might possible be due to the lack of the quite reactive dichloromaleimide unit present in C11 which is absent in IRES-J007, or may be due to other factors.

Structure (SMILES) | percentage of cells undergoing apoptosis ([1]; combined with PP242, four GBM lines) | G1 arrest ([1]; cotreatment with PP242, four GBM lines) | actin mRNA distribution ([2]; 50 nM) | polysome distribution of cyclin D1 and c-MYC mRNA ([2]; 50 nM) | cyclin D1 or c-MYC steady-state mRNA levels ([2]; total monosomal/nonribosomal plus polysomal mRNA) | cyclin D1 or c-MYC mRNA association with eIF-4E [3] | IRES-mediated initiation from ECMV IRES [4] | actin mRNA polysomal distribution / translational efficiency (actin mRNA) | cytotoxic effects on normal neurons [5]
COc1ccc(CN2C(=O)C(Cl)=C(Cl)C2=O)c(OC)c1 [Compound C11, reference compound] | further potentiated the percentage of cells undergoing apoptosis | markedly stimulated G1 arrest | unaffected | significant shift in both cyclin D1 and c-MYC mRNA to monosomal/nonribosomal fractions | did not appear to alter | did not affect | did not affect |  | 
COc1ccc(CN2C(=O)c3ccccc3C2=O)c(OC)c1 [IRES-J007, 2-((2,4-Dimethoxyphenyl)methyl)isoindoline-1,3-dione] |  |  |  |  |  |  |  | unaffected | no significant cytotoxic effects
